According to patent US11613560B2, “Bicyclic peptide ligands specific for OX40” (BicycleTx Limited, priority 2019, dated 2023):

Columns and labels:
human PBMCs = assay: Human PBMC - tumor cell co-culture assay (IL-2 by HTRF); assay type: cell-based; details: anti-CD3 and anti-CD28 stimulation, 48 hours
Method: 4T1, a Nectin-4 negative murine mammary gland epithelial cancer cell (4T1 Nectin-4 −ve; 4T1-Parental) and its genetically modified version expressing murine Nectin-4 on the cell surface (4T1 Nectin-4 +ve; clone 4T1-D02) were cultured to 80% confluency in vitro in RPMI1640 medium supplemented with 10% heat-inactivated FBS, 1× Penicillin/Streptomycin, 1× L-Glutamine, 20 mM HEPES and 1×NEAA (RPMI working medium). Tumor cells were trypsinized and washed two times at 1500 rpm for 5 minutes in RPMI1640 working medium prewarmed to 37° C. Four thousand tumor cells in 25 μl were plated per well in a sterile 384 well cell culture plate. Frozen human PBMCs were thawed and washed one time at 1250 rpm for 5 minutes in prewarmed RPMI1640 working medium. 20000 viable PBMCs in 50 μl RPMI1640 working medium supplemented with 250 ng/ml (2× concentration) of human anti-CD3 (clone OKT3) and 500 ng/ml (2× concentration) of human anti-CD28 (clone CD28.2) were added per respective wells containing tumor cells in 25 μl medium to obtain a […] ratio for tumor cells and PBMCs. Test compounds in DMSO were diluted in RPMI1640 working medium. An equivalent amount of DMSO was added to assay controls. […] Culture supernatant was collected at 48 hours post-treatment, and IL-2 concentrations were measured using HTRF assays (CIS Bio). Data were analyzed using GraphPad Prism.

OX40 = target: T1, OX40 (Homo sapiens, UniProt P43489); assay: Promega OX40 cell-activity assay in co-culture with tumor cells (Nectin-4 positive 4T1-D02); assay type: cell-based; details: co-culture with Nectin-4 positive 4T1-D02 cells; compared to OX40L and non-binding control BCY12968
T1 construct: host or cells: OX40 Jurkat cells (NF-kB luciferase reporter)
T1 sequence (P43489 29-277): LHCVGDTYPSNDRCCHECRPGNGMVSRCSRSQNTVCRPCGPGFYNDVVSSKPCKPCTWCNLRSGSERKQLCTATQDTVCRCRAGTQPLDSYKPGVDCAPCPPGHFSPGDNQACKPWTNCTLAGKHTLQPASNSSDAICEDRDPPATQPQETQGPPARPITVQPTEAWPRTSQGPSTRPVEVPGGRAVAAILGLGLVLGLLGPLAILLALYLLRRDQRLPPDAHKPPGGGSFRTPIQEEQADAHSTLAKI
Method: Promega have developed an OX40 cell-activity assay that uses NF-κB luciferase luminescence as a read-out of OX40 activation in Jurkat cells (Promega CS197704). On the day of the experiment, prepare medium by thawing FBS and adding 5% FBS to RPMI-1640. Thaw OX40 Jurkat cells in the water-bath and then add 500 μl cells to 11.5 ml pre-warmed 5 FBS RPMI-1640 medium. Add 55 μl cells/well to white cell culture plates. Harvest tumor cells from culture. 4T1 is a Nectin-4 negative murine mammary gland epithelial cancer cell and it was genetically modified to express murine Nectin-4 on the cell surface (4T1 Nectin-4 positive; clone 4T1-D02). Tumor cells were cultured to 80% confluency in vitro in RPMI1640 medium supplemented with 10% heat-inactivated FBS, 1× Penicillin/Streptomycin, 1×L-Glutamine, 20 mM HEPES and 1×NEAA (RPMI working medium). Tumor cells were trypsinized and washed two times at 1500 rpm for 5 minutes in RPMI1640 working medium prewarmed to 37° C. Count cells and resuspend at 2,000,000 cells/mL in R5 media (for 10,000 cells/well). Add 5 μL of tumour cells per well.
Proceed to dilute agonists at concentration giving the maximum fold induction and then titrate down the amount in a sterile 96 well-plate. Prepare enough reagent for duplicate samples and then perform ⅓ dilution series or 1/10 dilution series. Include positive control OX40L trimer (AcroBiosystems, R&D systems) and negative control monomeric or non-binding peptides. Add 20 μl of agonist as duplicate samples or 5% FBS RPMI-1640 alone as background control.
Co-incubate cells together with agonists for 6 hours at 37° C., 5% CO2. After 6 hours, thaw Bio-Glo™ and develop the assay at room-temperature. Add 80 μl Bio-Glo™ per well and incubate 5-10 min. Read luciferase signal on CLAIROStar plate-reader using the MARS program and normalize the fold induction relative to background (medium alone). Analyse data by transforming the data to x=log (X), then plot log (agonist) vs. response variable slope (4 parameters) to calculate EC50 values.

Structure (SMILES) | IL-2 levels (human PBMCs; 4T1 cells without Nectin-4 expression) | production of the cytokine IL-2 by human PBMCs (human PBMCs; Nectin-4 expressing 4T1 cells) | OX40 agonism in co-culture (OX40)
CSCC[C@@H]1NC(=O)[C@@H]2CSCCC(=O)N3CN(CN(C3)C(=O)CCSC[C@H](NC(=O)CCOCCOCCOCCOCCOCCOCCOCCOCCOCCOCCOCCOCCn3cc(CCC(=O)NCCCC[C@H](NC(=O)[C@H](C)NC(=O)[C@@H]4CSCCC(=O)N5CN6CN(C5)C(=O)CCSC[C@H](NC(=O)[C@@H]5CCCN5C(=O)[C@H](CO)NC(=O)[C@H](Cc5ccc(O)cc5)NC(=O)[C@H](CC(C)C)NC(=O)[C@@H](NC(=O)[C@H](C)N)CSCCC6=O)C(=O)N[C@@H](Cc5c[nH]c6ccccc56)C(=O)N[C@@H](Cc5c[nH]cn5)C(=O)N5CCC[C@H]5C(=O)N[C@@H](CC(C)C)C(=O)N[C@@H](CC(N)=O)C(=O)N[C@@H](CC(=O)O)C(=O)N4)C(N)=O)nn3)C(=O)N3CCC[C@H]3C(=O)N[C@@H](Cc3cccc4ccccc34)C(=O)N[C@H](CC(=O)O)C(=O)N2)C(=O)CCSC[C@@H](C(N)=O)NC(=O)[C@H](Cc2c[nH]c3ccccc23)NC(=O)[C@@H]2C[C@@H](O)CN2C(=O)[C@@H]2CCCN2C(=O)[C@H]([C@@H](C)O)NC(=O)[C@H](CO)NC(=O)[C@H](Cc2c[nH]c3ccccc23)NC(=O)[C@H](CC(=O)O)NC(=O)[C@H](CCCCNC(=N)N)NC1=O [BCY12141] | comparable to the control baseline CD3+CD28 stimulation | induced the production of the cytokine IL-2 | potent OX40 agonism
CSCC[C@@H]1NC(=O)[C@@H]2CSCCC(=O)N3CN(CN(C3)C(=O)CCSC[C@H](NC(=O)CCOCCOCCOCCOCCOCCn3cc(CCC(=O)NCCCC[C@H](NC(=O)[C@H](C)NC(=O)[C@@H]4CSCCC(=O)N5CN6CN(C5)C(=O)CCSC[C@H](NC(=O)[C@@H]5CCCN5C(=O)[C@H](CO)NC(=O)[C@H](Cc5ccc(O)cc5)NC(=O)[C@H](CC(C)C)NC(=O)[C@@H](NC(=O)[C@H](C)NC(C)=O)CSCCC6=O)C(=O)N[C@@H](Cc5c[nH]c6ccccc56)C(=O)N[C@@H](Cc5c[nH]cn5)C(=O)N5CCC[C@H]5C(=O)N[C@@H](CC(C)C)C(=O)N[C@@H](CC(N)=O)C(=O)N[C@@H](CC(=O)O)C(=O)N4)C(N)=O)nn3)C(=O)N3CCC[C@H]3C(=O)N[C@@H](Cc3cccc4ccccc34)C(=O)N[C@H](CC(=O)O)C(=O)N2)C(=O)CCSC[C@@H](C(N)=O)NC(=O)[C@H](Cc2c[nH]c3ccccc23)NC(=O)[C@@H]2C[C@@H](O)CN2C(=O)[C@@H]2CCCN2C(=O)[C@H]([C@@H](C)O)NC(=O)[C@H](CO)NC(=O)[C@H](Cc2c[nH]c3ccccc23)NC(=O)[C@H](CC(=O)O)NC(=O)[C@H](CCCCNC(=N)N)NC1=O [BCY12721] |  |  | potent OX40 agonism
CSCC[C@@H]1NC(=O)[C@@H]2CSCCC(=O)N3CN(CN(C3)C(=O)CCSC[C@H](NC(=O)CCOCCOCCOCCN(CCOCCOCCOCCn3cc(CCC(=O)NCCCC[C@H](NC(=O)[C@H](C)NC(=O)[C@@H]4CSCCC(=O)N5CN6CN(C5)C(=O)CCSC[C@H](NC(=O)[C@@H]5CCCN5C(=O)[C@H](CO)NC(=O)[C@H](Cc5ccc(O)cc5)NC(=O)[C@H](CC(C)C)NC(=O)[C@@H](NC(=O)[C@H](C)N)CSCCC6=O)C(=O)N[C@@H](Cc5c[nH]c6ccccc56)C(=O)N[C@@H](Cc5c[nH]cn5)C(=O)N5CCC[C@H]5C(=O)N[C@@H](CC(C)C)C(=O)N[C@@H](CC(N)=O)C(=O)N[C@@H](CC(=O)O)C(=O)N4)C(N)=O)nn3)CCOCCOCCOCCn3cc(CCC(=O)NCCCC[C@H](NC(=O)[C@H](C)NC(=O)[C@@H]4CSCCC(=O)N5CN6CN(C5)C(=O)CCSC[C@H](NC(=O)[C@@H]5CCCN5C(=O)[C@H](CO)NC(=O)[C@H](Cc5ccc(O)cc5)NC(=O)[C@H](CC(C)C)NC(=O)[C@@H](NC(=O)[C@H](C)N)CSCCC6=O)C(=O)N[C@@H](Cc5c[nH]c6ccccc56)C(=O)N[C@@H](Cc5c[nH]cn5)C(=O)N5CCC[C@H]5C(=O)N[C@@H](CC(C)C)C(=O)N[C@@H](CC(N)=O)C(=O)N[C@@H](CC(=O)O)C(=O)N4)C(N)=O)nn3)C(=O)N3CCC[C@H]3C(=O)N[C@@H](Cc3cccc4ccccc34)C(=O)N[C@H](CC(=O)O)C(=O)N2)C(=O)CCSC[C@@H](C(N)=O)NC(=O)[C@H](Cc2c[nH]c3ccccc23)NC(=O)[C@@H]2C[C@@H](O)CN2C(=O)[C@@H]2CCCN2C(=O)[C@H]([C@@H](C)O)NC(=O)[C@H](CO)NC(=O)[C@H](Cc2c[nH]c3ccccc23)NC(=O)[C@H](CC(=O)O)NC(=O)[C@H](CCCCNC(=N)N)NC1=O [BCY12967] |  |  | potent OX40 agonism
